Values quoted from earlier work as cited in patent publication US6391860B1, “Method for preparation and use of paste formed by controlled reaction of sucralfate with hydrochloric acid” (priority 1999, dated 2002).

aluminum hydroxide salt of sucrose octasulfate [Sucralfate]
solubility in most polar and non-polar solvents: insoluble | solubility in strong acid and strong alkali: soluble
